The target in experiment [1] is SARS-CoV-2 Papain-like (PLpro) protease (Severe acute respiratory syndrome coronavirus 2, UniProt P0DTD1). Kind of experiment: biochemical.
Experiment [2] relates to SARS-CoV-2 replicon. Kind of experiment: microbe, parasite or virus in culture. Type of experiment: cell-based.
Experiment [3] concerns SARS-CoV-2 USA-WA1/2020. Briefly: SARS-CoV-2 Cellular Assay (Vero 76). Type of experiment: cell-based. To be noted: Severe acute respiratory syndrome coronavirus 2, Vero 76, 144 h, read-out: SARS-COV-2 BSL3 EC50. As to the method: SARS-CoV-2 Cellular Assay (Vero 76): Test compounds are serially diluted using eight half-log dilutions in test medium (MEM supplemented with 2% FBS and 50 µg/mL gentamicin). Each dilution is added to 5 wells of a 96-well plate with 80-100% confluent Vero 76 cells. Three wells of each dilution are infected with virus (SARS-CoV-2 USA-WA1/2020), and two wells remain uninfected as toxicity controls. Six wells are infected and untreated as virus controls, and six wells are uninfected and untreated as cell controls. Viruses are prepared to achieve the lowest possible multiplicity of infection (MOI˜0.002) that would yield >80% cytopathic effect (CPE) at 6 days. Plates are incubated at 37±2° C., 5% CO2. For neutral red assay, on day 6 post-infection, once untreated virus control wells reach maximum CPE, plates are stained with neutral red dye for approximately 2 hours (±15 minutes). Supernatant dye is removed, and wells are rinsed with PBS, and the incorporated dye is extracted in 50:50 Sorensen citrate buffer/ethanol for >30 minutes and the optical density is read on a spectrophotometer at 540 nm. Optical densities are converted to percent of cell controls and normalized to the virus control, then the concentration of test compound required to inhibit CPE by 50% (EC50) is calculated by regression analysis. The concentration of compound that would cause 50% cell death in the absence of virus was similarly calculated (CC50). EC50 ranges are reported as follows: A<1 µM; B 1-10 µM; C 10-50 µM; D>50 µM.

The mark [4] stands for this setting: ubiquitin-fluorophore substrate (Ub-R110), 30 min preincubation at RT, run in duplicate, read-out: PLpro IC50.
Setting [5] is: Severe acute respiratory syndrome coronavirus 2, Huh-7, 20 h; read-out: SARS-COV-2 replicon EC50.
The mark [6] stands for this setting: Severe acute respiratory syndrome coronavirus 2, Huh-7, 20 h, read-out: SARS-COV-2 replicon EC50.

Read-outs that look alike come from different tables or passages of the source.

With `Cc1ccc2cc1C(=O)N[C@H](C)c1cc(cc3ccccc13)C=CCCCN(C(=O)OCc1ccccc1)C2` [Example 1], the IC50 in experiment [1] is over 10000 nM.

On to `Cc1ccc2cc1C(=O)N[C@H](C)c1cc(cc3ccccc13)CCCCCNC2` [Example 2], for which the concentration for half-maximal inhibition (IC50) in experiment [1] (setting [4]) lay within 100 to 1000 nM. Further, the concentration for a half-maximal effect (EC50) in experiment [2] (setting [5]) and in experiment [3] was 1000 to 10000 nM each time.

Turning to `Cc1ccc2cc1C(=O)N[C@H](C)c1cc(cc3ccccc13)C=CCCN(C(=O)OCc1ccccc1)C2` [Example 3], the IC50 in experiment [1] (setting [4]) was over 10000 nM.

For `Cc1ccc2cc1C(=O)N[C@H](C)c1cc(cc3ccccc13)CCCCNC2` [Example 4], in experiment [1] (setting [4]), the IC50 is 1000 to 10000 nM.

Regarding `Cc1ccc2cc1C(=O)N[C@H](C)c1cc(cc3ccccc13)CCCCCCNC2` [Example 5], the 50% inhibitory concentration (IC50) in experiment [1] (setting [4]) was 100 to 1000 nM. The EC50 in experiment [2] (setting [5]) is 1000 to 10000 nM.

On to `Cc1ccc2cc1C(=O)N[C@H](C)c1cc(cc3ccccc13)C=CCCCCC2` [Example 6], for which, in experiment [1] (setting [4]), the concentration for half-maximal inhibition (IC50) is over 10000 nM.

Turning to `Cc1ccc2cc1C(=O)N[C@H](C)c1c(ccc3ccccc13)CCCCNC2` [Example 7], in experiment [1] (setting [4]), the IC50 was 1000 to 10000 nM.

`Cc1ccc2cc1C(=O)N[C@H](C)c1c(ccc3ccccc13)CCCCCNC2` [Example 8]: the IC50 in experiment [1] (setting [4]) was over 10000 nM.

As to `Cc1ccc2cc1C(=O)N[C@H](C)c1cc(cc3ccccc13)C(=O)N1CCN(CC1)C(=O)CC2` [Example 9], the IC50 in experiment [1] (setting [4]) is over 10000 nM.

`Cc1ccc2cc1C(=O)N[C@H](C)c1cc(cc3ccccc13)C(=O)N(C)CCCN(C)C(=O)CC2` [Example 11]: the half-inhibitory concentration (IC50) in experiment [1] (setting [4]) was over 10000 nM.

Consider `Cc1ccc2cc1C(=O)N[C@H](C)c1cc(cc3ccccc13)C(=O)N(C)CCCC(=O)NC2` [Example 12], for which the half-inhibitory concentration (IC50) in experiment [1] (setting [4]) was over 10000 nM.

For the molecule `Cc1ccc2cc1C(=O)N[C@H](C)c1cc(cc3ccccc13)-c1cn(nn1)CCCC(=O)NC2` [Example 13], in experiment [1] (setting [4]), the IC50 was over 10000 nM.

Consider `Cc1ccc2cc1C(=O)N[C@H](C)c1cc(cc3ccccc13)-c1cn(nn1)CCCCC(=O)NC2` [Example 14], for which the 50% inhibitory concentration (IC50) in experiment [1] (setting [4]) was in the range of 100 to 1000 nM. Further, the EC50 in experiment [2] (setting [5]) is over 50000 nM.

Regarding `Cc1ccc2cc1C(=O)N[C@H](C)c1cc(cc3ccccc13)N1CCN(CCCC(=O)NC2)CC1` [Example 15], the 50% inhibitory concentration (IC50) in experiment [1] (setting [4]) fell in the range of 1000 to 10000 nM.

With `Cc1ccc2cc1C(=O)N[C@H](C)c1cc(cc3ccccc13)N1CCN(CCCCC(=O)NC2)CC1` [Example 16], the IC50 in experiment [1] (setting [4]) is over 10000 nM.

In experiment [1], `Cc1ccc2cc1C(=O)N[C@H](C)c1cc(cc3ccccc13)-c1cn(nn1)CCCCNC2` [Example 17] showed an IC50 of 100 to 1000 nM. Besides, the EC50 in experiment [2] (setting [6]) was in the range of 10000 to 50000 nM.

`COC(=O)/C=C/C(=O)NNC(=O)CCc1ccc2cc1C(=O)N[C@H](C)c1cc(cc3ccccc13)CCCCCCC2` [Example 18]: the IC50 in experiment [1] (setting [4]) lay within 100 to 1000 nM. Also, the results for the 50% effective concentration (EC50) in experiment [2] (setting [5]) and in experiment [3] were 10000 to 50000 nM and 1000 to 10000 nM, respectively.

As for `COC(=O)/C=C/C(=O)NNC(=O)CCc1ccc2cc1C(=O)N[C@H](C)c1cc(cc3ccccc13)C=CCCCCC2` [Example 19], the half-inhibitory concentration (IC50) in experiment [1] (setting [4]) is under 100 nM. The EC50 in experiment [2] (setting [5]) lay within 1000 to 10000 nM.

In the case of `C[C@H]1NC(=O)c2cc(ccc2CCC(=O)NN)CCCCCC=Cc2cc1c1ccccc1c2` [Example 20], the IC50 in experiment [1] (setting [4]) was over 10000 nM.

As to `C[C@H]1NC(=O)c2cc(ccc2CCC(=O)NNC(=O)OC(C)(C)C)CCCCCC=Cc2cc1c1ccccc1c2` [Example 21], the IC50 in experiment [1] (setting [4]) is over 10000 nM.

As for `COC(=O)/C=C/C(=O)NNC(=O)CCc1ccc2cc1C(=O)N[C@H](C)c1cccc(c1)C=CCCCCC2` [Example 22], in experiment [1] (setting [4]), the half-inhibitory concentration (IC50) lay in the range of 1000 to 10000 nM.

With `COC(=O)/C=C/C(=O)NNC(=O)CCc1ccc2cc1C(=O)N[C@H](C)c1cc(cc3ccccc13)CCCCCCS(=O)(=O)C2` [Example 23], the IC50 in experiment [1] (setting [4]) is under 100 nM. For the same molecule, in experiment [2] (setting [5]), the half-maximal effective concentration (EC50) was 10000 to 50000 nM.

As for `COC(=O)/C=C/C(=O)NNC(=O)CCc1ccc2cc1C(=O)N[C@H](C)c1cc(cc3ccccc13)CCCCCS(=O)(=O)C2` [Example 24], the IC50 in experiment [1] (setting [4]) was under 100 nM. Besides, the EC50 in experiment [2] (setting [5]) lay within 10000 to 50000 nM.

Take `COC(=O)/C=C/C(=O)NNC(=O)CCc1ccc2cc1C(=O)N[C@H](C)c1cc(cc3ccccc13)CCCCCNC2=O` [Example 25]: the concentration giving a half-maximal response (EC50) in experiment [2] (setting [6]) and in experiment [3] was under 1000 nM throughout.

As to `COC(=O)/C=C/C(=O)NNC(=O)CCc1ccc2cc1C(=O)N[C@H](C)c1cc(cc3ccccc13)CCCCCCNC2=O` [Example 26], the half-inhibitory concentration (IC50) in experiment [1] (setting [4]) is under 100 nM.

In the case of `COC(=O)/C=C/C(=O)NNC(=O)CCc1ccc2cc1C(=O)N[C@H](C)c1cc(cc3ccccc13)C=CCCCCNC2=O` [Example 27], the IC50 in experiment [1] (setting [4]) was under 100 nM.

With `COC(=O)/C=C/C(=O)NNC(=O)CCc1ccc2cc1C(=O)N[C@H](C)c1cc(cc3ccccc13)C=CCCCNC2=O` [Example 28], the IC50 in experiment [1] (setting [4]) is under 100 nM.

For the molecule `COC(=O)/C=C/C(=O)NNC(=O)CCc1ccc2cc1C(=O)N[C@H](C)c1cc(cc3ccccc13)C=CCCCCN(C)C2=O` [Example 29], the half-maximal inhibitory concentration (IC50) in experiment [1] (setting [4]) was under 100 nM.

For the molecule `COC(=O)/C=C/C(=O)NNC(=O)CCc1ccc2cc1C(=O)N[C@H](C)c1cc(cc3ccccc13)CCCCCCN(C)C2=O` [Example 30], in experiment [1] (setting [4]), the half-inhibitory concentration (IC50) was under 100 nM. In addition, the EC50 in experiment [2] (setting [5]) was 1000 to 10000 nM; in experiment [3], under 1000 nM.

Take `COC(=O)/C=C/C(=O)NNC(=O)CCc1ccc2cc1C(=O)N[C@H](C)c1cc(cc3ccccc13)CCCCCN(C)C2=O` [Example 31]: the IC50 in experiment [1] (setting [4]) is under 100 nM.

On to `COC(=O)/C=C/C(=O)NNC(=O)CCc1ccc2cc1C(=O)N[C@H](C)c1cc(cc3ccccc13)C=CCCCN(C)C2=O` [Example 32], for which, in experiment [1] (setting [4]), the IC50 was under 100 nM.

For the molecule `COC(=O)/C=C/C(=O)NNC(=O)CCc1ccc2cc1C(=O)N[C@H](C)c1cccc3ccc(cc13)CCCCNC2=O` [Example 34], the 50% inhibitory concentration (IC50) in experiment [1] (setting [4]) lay in the range of 100 to 1000 nM.

Regarding `COC(=O)/C=C/C(=O)NNC(=O)CCc1ccc2cc1C(=O)N[C@H](C)c1cc(cc3ccccc13)CCCCCNS2(=O)=O` [Example 35], the 50% inhibitory concentration (IC50) in experiment [1] (setting [4]) was under 100 nM.

Turning to `COC(=O)/C=C/C(=O)NNC(=O)CCc1ccc2cc1C(=O)N[C@H](C)c1cc(cc3c1CCCC3)CCCCCNS2(=O)=O` [Example 36], in experiment [1] (setting [4]), the half-maximal inhibitory concentration (IC50) lay within 100 to 1000 nM.

In the case of `COC(=O)/C=C/C(=O)NNC(=O)CCc1ccc2cc1C(=O)N[C@H](C)c1cc(cc3ccccc13)CCCCOCCNC2=O` [Example 37], the IC50 in experiment [1] (setting [4]) was under 100 nM. Moreover, the concentration for a half-maximal effect (EC50) in experiment [2] (setting [5]) and in experiment [3] was under 1000 nM each time.

For `COC(=O)/C=C/C(=O)N(NC(=O)CCc1ccc2cc1C(=O)N[C@H](C)c1cc(cc3ccccc13)CCCCOCCNC2=O)C(=O)/C=C/C(=O)OC` [Example 38], the half-inhibitory concentration (IC50) in experiment [1] (setting [4]) was under 100 nM.

As to `COC(=O)/C=C/C(=O)NNC(=O)CCc1ccc2cc1C(=O)N[C@H](C)c1cc(cc3ccccc13)CCCCCC(=O)N2` [Example 39], the IC50 in experiment [1] (setting [4]) is under 100 nM. Further, the EC50 in experiment [2] (setting [5]) was 1000 to 10000 nM; in experiment [3] it was under 1000 nM.

For the molecule `COC(=O)/C=C/C(=O)NNC(=O)CCc1ccc2cc1C(=O)N[C@H](C)c1cc(cc3ccccc13)CCCCOC(=O)N2` [Example 40], the half-inhibitory concentration (IC50) in experiment [1] (setting [4]) was under 100 nM. For the same molecule, the values for the EC50 in experiment [2] (setting [5]) and in experiment [3] were 1000 to 10000 nM and under 1000 nM, respectively.

With `C[C@H]1NC(=O)c2cc(ccc2C#N)C(=O)NCCCCCc2cc1c1ccccc1c2` [Example 41], the half-maximal inhibitory concentration (IC50) in experiment [1] (setting [4]) lay in the range of 1000 to 10000 nM.

Take `COC(=O)/C=C/CNC(=O)C(=O)NCc1ccc2cc1C(=O)N[C@H](C)c1cc(cc3ccccc13)CCCCCNC2=O` [Example 42, methyl (R,E)-4-(2-(((2-methyl-4,6-dioxo-3,7-diaza-1(1,3)-naphthalena-5(1,3)-benzenacyclododecaphane-5^6-yl)methyl)amino)-2-oxoacetamido)but-2-enoate]: the concentration for half-maximal inhibition (IC50) in experiment [1] (setting [4]) is over 10000 nM.

The values are drawn from patent US20240207224A1, “MACROCYCLIC CHALCONE-AMIDE DERIVED ANTIVIRAL AGENTS” (priority 2022, published 2024).
